The term IC50 denotes the point on the concentration scale where inhibition reaches its midpoint.

Molecules are shown by their SMILES. The source made the active and inactive calls.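 How the source made its calls: active means IC50 at or below 20 µM; inactive means the rest.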

The test addresses glucose-6-phosphate dehydrogenase-6-phosphogluconolactonase (PfGluPho), Plasmodium falciparum 3D7. In words: PfGluPho enzyme inhibitors, SAR follow-up, biochemical, fluorescence intensity, dose response, set 3 (AID 602131). The conditions noted are these: recombinant PfGluPho, NADPH resazurin-diaphorase fluorescence. A general note: The colour change of resazurin is a common sign of viable cells or microbes.

For `CCN1CCCC1CNC(=O)c1ccc2c(c1)NC(=O)/C(=C/c1ccc3ccccc3c1)S2` (centres undefined), the IC50 is 2.39 µM.
For the compound `O=C(NCCNC1CCCCC1)c1ccc2c(c1)NC(=O)c1ccccc1S2`, the IC50 entry is “inactive”.
Then `CCN1CCC[C@H]1CNC(=O)c1ccc2c(c1)NC(=O)c1ccccc1S2`, with “inactive”; and `CCC(C)N(CCNC(=O)c1ccc2c(c1)NC(=O)c1ccccc1S2)C1CCCCC1` (centres undefined), with 14.1 µM.
As to `O=C(NCCN1CCCCC1)c1ccc2c(c1)NC(=O)c1ccccc1S2`, the IC50 result is “inactive”.
As for `CCN1CCCC1CNC(=O)c1ccc2c(c1)NC(=O)/C(=C/c1ccc(F)cc1)S2` (centres undefined), the IC50 was 1.41 µM.
The figure for `CCN1CCC[C@@H]1CNC(=O)c1ccc2c(c1)NC(=O)/C(=C/c1ccccc1F)S2` is 0.889 µM; for `CCN1CCCC1CNC(=O)c1ccc2c(c1)NC(=O)C(Cc1ccccc1F)S2` (centres undefined) it is > 80 µM (inactive).
In the case of `CN(C)c1ccccc1CNC(=O)c1ccc2c(c1)NC(=O)/C(=C/c1ccccc1F)S2`, the IC50 was > 80 µM (inactive).
Turning to `CCN(CC)CCNC(=O)c1ccc2c(c1)NC(=O)/C(=C/c1ccccc1F)S2`, the half-maximal inhibitory concentration (IC50) was 6.86 µM.
Regarding `CCC(C)N1CCCC1CNC(=O)c1ccc2c(c1)NC(=O)c1ccccc1S2` (centres undefined), the IC50 is 9.23 µM.
As for `NC1CCN(C(=O)c2ccc3c(c2)NC(=O)c2ccccc2S3)C1` (centres undefined), the IC50 was > 80 µM (inactive).
Take `CCN1CCC[C@@H]1CNC(=O)c1ccc2c(c1)NC(=O)c1ccccc1S2`: the IC50 is 5.05 µM.
The entry for `NC1CCN(C(=O)c2ccc3c(c2)NC(=O)/C(=C/c2ccccc2F)S3)C1` (centres undefined) is “inactive”; for `CCN(CC)CCCC(C)Nc1ccnc2cc(Cl)ccc12` (centres undefined) it is > 80 µM (inactive); for `O=C(NCCN1CCOCC1)c1ccc2c(c1)NC(=O)c1ccccc1S2` it is > 80 µM (inactive).
Turning to `NCCNC(=O)c1ccc2c(c1)NC(=O)c1ccccc1S2`, the IC50 was > 80 µM (inactive).
As to `CC(C)(C)OC(=O)N1CCCC1CNC(=O)c1ccc2c(c1)NC(=O)/C(=C/c1ccccc1F)S2` (centres undefined), the IC50 is > 80 µM (inactive).
Consider `CCN1CCC[C@H]1CNC(=O)c1ccc2c(c1)NC(=O)/C(=C/c1ccccc1F)S2`, for which the IC50 was 6.59 µM.

Values taken from PubChem BioAssay AID602131 (Sanford-Burnham Center for Chemical Genomics, 2011).
